Results as given in PMC6271245, “Discovery of Gramine Derivatives That Inhibit the Early Stage of EV71 Replication in Vitro” (Molecules, 2014).
Values after ≈ are worked out from the molar mass of the structure shown.

Columns and labels:
[1] = Cytotoxicity on uninfected Vero cells, MTT; format: cell-based; settings: African green monkey; concentration reducing cell viability by 50%; uninfected Vero cells, 48 h, MTT; read-out: CC50 (µg/mL) Vero
Method: (§1) The antiviral activities of gramine and its derivatives against EV71 based on inhibition of virus-induced cytopathogenicity effects (CPEs) in African green monkey kidney cells (Vero) and rhabdomyosarcoma cells (RD) were examined. The cytotoxic effects were also evaluated. The inhibitory activities expressed as half maximal effective concentration (EC50) values and selectivity indexes (SI) for the target compounds are presented in Table 1, and the dose-dependent antiviral effects are shown in Figure 1A.
(§2) The activity of compounds against EV71 was determined based on the inhibition of virus-induced cytopathogenicity effects (CPEs) in acutely infected cells. Vero and RD cells grown to 90% confluency in 96-well dishes were washed with phosphate buffered saline (PBS) and infected with 100 TCID50 of EV71 mixed with serial dilutions of tested compounds for 1.5 h at 37 °C. The inoculum was aspirated and cells were incubated with DMEM and test compounds at 37 °C, 5% CO2 for 48 h. The CPEs were observed microscopically and the viability of the cells was determined with a 3-(4,5-dimethylthiazol-2-yl)-2,5-diphenyltetrazolium bromide (MTT) assay. The concentrations required for the test compounds to achieve 50% protection from virus-induced cytopathogenicity (EC50) were determined. Adverse effects of these compounds on the host cells were also assessed by means of the MTT-method; by exposing uninfected cells to various concentrations of test compounds for 48 h at 37 °C, the viability of the cells was detected. The 50% cell cytotoxic concentrations (CC50) of compounds were calculated with the SPSS software (SPSS, Chicago, IL, USA). Selectivity indexes were calculated as the ratio of CC50: EC50.
(§3) Cell viability was assessed by an MTT assay, which functions based on the reduction of a MTT into formazan dye by active mitochondria. The cells were treated with 100 µL of MTT (1 mg/mL, Sigma, St. Louis, MO, USA) and incubated at 37 °C for 4 h. The reaction was blocked by DMSO and measured in a microplate reader (Bio-Tek Instruments, Winooski, VT, USA) at 492 nm. The untreated control was arbitrarily set as 100%.

EV71 [2] = assay: Analysis of effective stage (treatment before, during or post infection) in RD cells; format: cell-based, Enterovirus 71; settings: for titers of virus from infected cells, treatment before infection (preventive effect): RD cells pretreated 2 h with 10 µg/mL 4a, 20 µg/mL 4i, 40 µg/mL 4r or 4s, 48 h; for inhibition of virus-induced CPEs, post-infection treatment: up to 40 µg/mL
Method: To identify the step in the viral life cycle that is affected by these compounds, the assays were performed using three different treatment protocols. […] For all treatments, cell viability and progeny virus yields were measured after 48 h of infection.
(§4) Figure 2 Analysis of modes of action against EV71 of gramine derivatives. Analysis of effective stage. The RD cells were treated with tested compounds before, simultaneously or after EV71 (100 TCID50) inoculation: antiviral effects were detected by measuring (A) cell viability and (B) progeny virus yields (10 µg/mL 4a, 20 µg/mL 4i, 40 µg/mL 4r and 4s) 48 h post infection; (C) Analysis of the effects on EV71 adsorption. Mock- or 10 µg/mL 4a, 20 µg/mL 4i, 40 µg/mL 4r and 4s-treated EV71 (10^4 TCID50) was spinoculated onto RD cells and adsorbed for 2 h; intracellular virus was subjected to titration using the TCID50 method; (D) Effects on EV71 release from RD cells. RD cells infected with 100 TCID50 of EV71 were incubated with 10 µg/mL 4a, 20 µg/mL 4i, 40 µg/mL 4r and 4s for 12 h, of both cells and supernatants (intra- and extracellular), or of cells or supernatants harvested separately for virus titration. […] Values represent the mean ± standard deviation of three independent experiments.
as §3
(§5) The virus suspension, serially diluted 10-fold with DMEM containing 2% FBS, was inoculated to cells in a 96-well plate. After 1 h incubation at 37 °C in 5% CO2, unbinding virus was washed out and MM was added to the cells. After 2 days, the infected cells were monitored for cytopathic effects (CPEs). The virus titer was calculated by the Reed–Muench method.

EV71 [3] = assay: Effect on EV71 adsorption, intracellular virus titration; format: cell-based, Enterovirus 71; settings: EV71 (10^4 TCID50) treated with 10 µg/mL 4a, 20 µg/mL 4i, 40 µg/mL 4r or 4s, spinoculated onto RD cells, adsorbed 2 h
Method: Mock- or 10 µg/mL 4a, 20 µg/mL 4i, or 40 µg/mL 4r or 4s-treated EV71 (10^4 TCID50) were spinoculated onto cells and adsorbed for 2 h. The infected cells were harvested following freeze–thaw cycles and then subjected to virus titration.
as §4, §5

Enterovirus 71 (EV71) [4] = assay: Inhibition of EV71-induced cytopathogenicity (CPE) in Vero cells, MTT; format: cell-based; settings: Enterovirus A, read-out: EC50 (µg/mL) Vero
Method: as §1
Figure 1 Gramine and its synthetic derivatives inhibited virus-induced CPE. (A) Vero cells were infected with 100 TCID50 of EV71 mixed with serial dilutions of tested compounds for 1.5 h at 37 °C; the inoculum was aspirated and cells were incubated with DMEM/tested compounds at 37 °C, 5% CO2 for 48 h pi. The viability of the cells was determined with an MTT assay; (B) Morphology image of Vero and RD cells treated with compounds 4a, 4i, 4r, and 4s for 48 h pi. (magnification, 20×).
as §2, §3

EV71 [5] = assay: Effect on EV71 release from RD cells; format: cell-based, Enterovirus 71; settings: 10 µg/mL 4a, 20 µg/mL 4i, 40 µg/mL 4r or 4s after infection, supernatants and cells harvested together or separately at 12 h
Method: as §4
A possible effect of the compounds on viral release from cells was tested. The RD cells were treated with or without 10 µg/mL 4a, 20 µg/mL 4i, or 40 µg/mL 4r or 4s after EV71 infection, and the supernatants and cells were harvested together or separately for analysis of progeny virus yields at 12 h.
as §5

Enterovirus 71 (EV71) [6] = assay: Inhibition of EV71-induced cytopathogenicity (CPE) in RD cells, MTT; format: cell-based; settings: for EC50: Enterovirus A, read-out: EC50 (µg/mL) RD; for inhibition of virus-induced CPE (morphology): 10 µg/mL 4a, 20 µg/mL 4i, 40 µg/mL 4r or 4s, 48 h pi
Method: as §1, §2, §3

[7] = concentration for 50% protection from virus-induced cytopathogenicity, Vero cells, 100 TCID50 EV71, 48 h, MTT, mean ± SD of three experiments
[8] = concentration for 50% protection from virus-induced cytopathogenicity, RD cells, 100 TCID50 EV71, 48 h, MTT
[9] = Enterovirus A, RD cells, 100 TCID50 EV71, 48 h, MTT, read-out: viability rate of infected cells, post-infection treatment

EC50 (Enterovirus 71 (EV71) [4]; [7]) [µg/mL] | EC50 (Enterovirus 71 (EV71) [6]; [8]) [µg/mL] | Compound | CC50 at 48 h [1] [µg/mL] | viability at 10 µg/mL (EV71 [2]; Enterovirus A, 10 µg/mL, RD cells, 100 TCID50 EV71, 48 h, MTT, read-out: viability rate of infected cells, post-infection treatment) [%] | titers of virus from infected cells, treatment before infection (preventive effect) (EV71 [2]) | inhibition of CPEs, post-infection treatment (EV71 [2]; at 40 µg/mL and 20 µg/mL, due to cytotoxic effects on cells) | intracellular virus titer during virus attachment (EV71 [3]) | effect on release of EV71 from cells (EV71 [5]) | inhibition of virus-induced CPE (morphology) (Enterovirus 71 (EV71) [6]; RD cells) | viability at 20 µg/mL (EV71 [2]; Enterovirus A, 20 µg/mL, RD cells, 100 TCID50 EV71, 48 h, MTT, read-out: viability rate of infected cells, post-infection treatment) [%] | viability at 40 µg/mL (EV71 [2]; [9]) [%] | inhibition of virus-induced CPEs, post-infection treatment (EV71 [2]; RD cells) | EC50 (Enterovirus 71 (EV71) [4]; EV71, Vero, 48 h) [µg/mL] | EC50 (Enterovirus 71 (EV71) [6]; EV71, RD, 48 h) [µg/mL]
12.7 ± 3.2 (≈ 42.4 µM) | 5.5 ± 2.4 (≈ 18.4 µM) | c1ccc(C(Nc2ccccn2)c2c[nH]c3ccccc23)cc1 (centres unmarked) [Compound 4a] | 32.6 ± 3.5 (≈ 109 µM) | 85.8 | nearly the same as those from untreated cells | no inhibition of CPEs | no significant decrease in virus titer | no effect on the release of EV71 | nearly complete inhibition of CPE | – | – | – | – | –
5.5 ± 1.6 (≈ 16.6 µM) | 6.1 ± 3.2 (≈ 18.4 µM) | Cn1cc(C(Nc2ccccn2)c2ccc(F)cc2)c2ccccc21 (centres unmarked) [Compound 4i] | 71.1 ± 3.8 (≈ 215 µM) | – | nearly the same as those from untreated cells | – | no significant decrease in virus titer | no effect on the release of EV71 | nearly complete inhibition of CPE | 90.5 | – | – | – | –
9.9 ± 1.4 (≈ 25.5 µM) | 7.3 ± 1.3 (≈ 18.8 µM) | Cn1cc(C(Nc2nc3ccccc3s2)c2ccccc2F)c2ccccc21 (centres unmarked) [Compound 4r] | 132 ± 8.3 (≈ 342 µM) | – | nearly the same as those from untreated cells | – | no significant decrease in virus titer | no effect on the release of EV71 | nearly complete inhibition of CPE | – | 84.6 | almost completely inhibited virus-induced CPEs | – | –
– | – | c1ccc(C(Nc2nc3ccccc3s2)c2c[nH]c3ccccc23)nc1 (centres unmarked) [Compound 4s] | 109 ± 16.8 (≈ 305 µM) | – | nearly the same as those from untreated cells | – | no significant decrease in virus titer | no effect on the release of EV71 | nearly complete inhibition of CPE | – | 95.7 | almost completely inhibited virus-induced CPEs | 7.6 ± 2.5 (≈ 21.3 µM) | 9.1 ± 3.1 (≈ 25.5 µM)
